Laboratory results reported in ChEMBL document CHEMBL4311981, “Synthesis, anticancer activity, and molecular modeling of 1,4-naphthoquinones that inhibit MKK7 and Cdc25” (Eur J Med Chem, 2019).
Active and inactive are the calls of the source. No cut-off for these calls is given here.

Legend:
THP-1 = test: Cytotoxicity against human THP1 cells assessed as reduction in cell viability at <50 uM incubated for 24 hrs by CellTiter-Glo luminescent cell viability assay; format: functional, cell-based
MONO-MAC-6 [1] = test: Cytotoxicity against human MONO-MAC-6 cells assessed as reduction in cell viability at <50 uM incubated for 24 hrs by CellTiter-Glo luminescent cell viability assay; format: functional, cell-based
HL-60 [2] = test: Cytotoxicity against human HL60 cells assessed as reduction in cell viability at <50 uM incubated for 24 hrs by CellTiter-Glo luminescent cell viability assay; format: functional, cell-based
SW982 [3] = test: Cytotoxicity against human SW982 cells assessed as reduction in cell viability at <50 uM incubated for 24 hrs by CellTiter-Glo luminescent cell viability assay; format: functional, cell-based
Jurkat [4] = test: Cytotoxicity against human Jurkat cells assessed as reduction in cell viability at <50 uM incubated for 24 hrs by CellTiter-Glo luminescent cell viability assay; format: functional, cell-based
U-937 [5] = test: Cytotoxicity against human U937 cells assessed as reduction in cell viability at <50 uM incubated for 24 hrs by CellTiter-Glo luminescent cell viability assay; format: functional, cell-based
MCF7 [6] = test: Cytotoxicity against human MCF7 cells assessed as reduction in cell viability at <50 uM incubated for 24 hrs by CellTiter-Glo luminescent cell viability assay; format: functional, cell-based
LS174T = test: Cytotoxicity against human LS174T cells assessed as reduction in cell viability at <50 uM incubated for 24 hrs by CellTiter-Glo luminescent cell viability assay; format: functional, cell-based
A549 = test: Cytotoxicity against human A549 cells assessed as reduction in cell viability at <50 uM incubated for 24 hrs by CellTiter-Glo luminescent cell viability assay; format: functional, cell-based
PBMC [7] = test: Cytotoxicity against human PBMC cells assessed as reduction in cell viability at <50 uM incubated for 24 hrs by CellTiter-Glo luminescent cell viability assay; format: cell-based
[8] = target: T1, Dual specificity mitogen-activated protein kinase kinase 7 (Homo sapiens) (UniProt O14733); test: Binding affinity to MKK7 (unknown origin) expressed in HEK293 cells assessed as dissociation constant at <30 uM by kinomescan method; format: cell-based
T1 sequence (whole entry): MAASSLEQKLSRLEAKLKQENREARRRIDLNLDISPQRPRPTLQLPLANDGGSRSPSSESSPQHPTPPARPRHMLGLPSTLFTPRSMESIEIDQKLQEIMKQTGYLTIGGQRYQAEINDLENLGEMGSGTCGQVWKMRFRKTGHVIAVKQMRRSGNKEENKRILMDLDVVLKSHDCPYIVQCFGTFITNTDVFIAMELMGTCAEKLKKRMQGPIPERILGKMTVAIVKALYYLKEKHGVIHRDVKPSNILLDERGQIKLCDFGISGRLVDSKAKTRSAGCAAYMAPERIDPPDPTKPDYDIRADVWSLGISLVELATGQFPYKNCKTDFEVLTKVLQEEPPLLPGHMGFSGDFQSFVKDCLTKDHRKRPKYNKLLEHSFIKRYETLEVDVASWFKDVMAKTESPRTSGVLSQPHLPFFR

[9] = target: T2, Neutrophil elastase (Homo sapiens) (UniProt P08246); test: Inhibition of recombinant HNE (unknown origin) at <50 uM using N-methylsuccinyl-Ala-Ala-Pro-Val-7-amino-4-methylcoumarin, as a substrate measured every 30 sec for 10 mins by fluorometric assay
T2 sequence (whole entry): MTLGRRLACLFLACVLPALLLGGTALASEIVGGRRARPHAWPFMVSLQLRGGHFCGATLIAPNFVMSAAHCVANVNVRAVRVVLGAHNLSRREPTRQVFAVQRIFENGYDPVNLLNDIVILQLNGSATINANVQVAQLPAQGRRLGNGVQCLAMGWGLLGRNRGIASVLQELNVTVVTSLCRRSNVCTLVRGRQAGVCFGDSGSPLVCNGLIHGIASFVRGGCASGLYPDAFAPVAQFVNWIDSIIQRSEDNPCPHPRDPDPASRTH

[10] = target: T3, M-phase inducer phosphatase 1 (Homo sapiens, UniProt P30304)
T3 sequence (P30304 whole entry): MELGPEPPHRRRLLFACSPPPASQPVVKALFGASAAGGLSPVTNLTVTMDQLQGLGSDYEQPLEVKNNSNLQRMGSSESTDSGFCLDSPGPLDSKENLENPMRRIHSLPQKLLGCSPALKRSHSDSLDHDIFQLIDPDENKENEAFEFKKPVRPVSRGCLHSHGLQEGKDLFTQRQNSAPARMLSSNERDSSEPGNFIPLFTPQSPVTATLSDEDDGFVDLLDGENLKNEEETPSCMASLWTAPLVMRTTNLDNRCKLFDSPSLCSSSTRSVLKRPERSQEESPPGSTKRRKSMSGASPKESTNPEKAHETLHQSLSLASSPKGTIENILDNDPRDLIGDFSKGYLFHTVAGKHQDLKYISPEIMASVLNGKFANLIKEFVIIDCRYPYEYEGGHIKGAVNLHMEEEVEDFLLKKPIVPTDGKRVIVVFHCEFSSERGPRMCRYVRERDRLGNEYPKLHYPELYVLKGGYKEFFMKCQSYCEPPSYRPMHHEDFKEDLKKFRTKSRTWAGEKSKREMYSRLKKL
Description: Inhibition of recombinant Cdc25A (unknown origin) using OMFP as substrate measured every 30 sec for 10 mins by fluorometric assay

[11] = target: T4, M-phase inducer phosphatase 2 (Homo sapiens, UniProt P30305)
T4 sequence (P30305 whole entry): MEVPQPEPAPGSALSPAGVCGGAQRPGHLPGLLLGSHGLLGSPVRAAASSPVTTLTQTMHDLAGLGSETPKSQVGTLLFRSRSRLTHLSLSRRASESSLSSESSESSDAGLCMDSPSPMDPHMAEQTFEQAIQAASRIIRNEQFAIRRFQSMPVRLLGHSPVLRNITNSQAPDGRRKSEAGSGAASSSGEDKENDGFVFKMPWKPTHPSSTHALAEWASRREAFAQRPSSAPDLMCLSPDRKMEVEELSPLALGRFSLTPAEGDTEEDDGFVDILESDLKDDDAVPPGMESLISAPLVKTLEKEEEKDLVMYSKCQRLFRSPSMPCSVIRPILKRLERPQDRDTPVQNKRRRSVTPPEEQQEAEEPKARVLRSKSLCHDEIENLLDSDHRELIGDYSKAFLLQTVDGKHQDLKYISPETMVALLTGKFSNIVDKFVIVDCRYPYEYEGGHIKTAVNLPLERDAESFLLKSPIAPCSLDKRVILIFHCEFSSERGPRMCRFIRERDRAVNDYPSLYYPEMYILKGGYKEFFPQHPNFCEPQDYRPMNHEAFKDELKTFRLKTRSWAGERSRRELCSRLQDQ
Description: Inhibition of recombinant Cdc25B (unknown origin) using OMFP as substrate measured every 30 sec for 10 mins by fluorometric assay

Neutrophil elastase = target: T5, Neutrophil elastase (Homo sapiens, UniProt P08246); test: Inhibition of recombinant HNE (unknown origin) using N-methylsuccinyl-Ala-Ala-Pro-Val-7-amino-4-methylcoumarin, as a substrate measured every 30 sec for 10 mins by fluorometric assay
T5 sequence (P08246 whole entry): T2 sequence (whole entry)

MONO-MAC-6 [12] = test: Cytotoxicity against human MONO-MAC-6 cells assessed as reduction in cell viability incubated for 24 hrs by CellTiter-Glo luminescent cell viability assay; format: functional, cell-based; conditions: MONO-MAC-6, 24 h
HL-60 [13] = test: Cytotoxicity against human HL60 cells assessed as reduction in cell viability incubated for 24 hrs by CellTiter-Glo luminescent cell viability assay; format: functional, cell-based; conditions: HL-60, 24 h
SW982 [14] = test: Cytotoxicity against human SW982 cells assessed as reduction in cell viability incubated for 24 hrs by CellTiter-Glo luminescent cell viability assay; format: functional, cell-based; conditions: SW982, 24 h
U-937 [15] = test: Cytotoxicity against human U937 cells assessed as reduction in cell viability incubated for 24 hrs by CellTiter-Glo luminescent cell viability assay; format: functional, cell-based; conditions: U-937, 24 h
MCF7 [16] = test: Cytotoxicity against human MCF7 cells assessed as reduction in cell viability incubated for 24 hrs by CellTiter-Glo luminescent cell viability assay; format: functional, cell-based; conditions: MCF7, 24 h
PBMC [17] = test: Cytotoxicity against human PBMC cells assessed as reduction in cell viability incubated for 24 hrs by CellTiter-Glo luminescent cell viability assay; format: cell-based; conditions: read-out: IC50
Jurkat [18] = test: cells; conditions: Homo sapiens, 24 h
Description: Cytotoxicity against human Jurkat cells assessed as reduction in cell viability incubated for 24 hrs by CellTiter-Glo luminescent cell viability assay

[19] = target: T6, Dual specificity mitogen-activated protein kinase kinase 7 (Homo sapiens, UniProt O14733); test: biochemical
T6 sequence (O14733 whole entry): T1 sequence (whole entry)
Description: Binding affinity to MKK7 (unknown origin) expressed in HEK293 cells assessed as dissociation constant by kinomescan method

Structure (SMILES): CC(C)=CCC1=C(O)C(=O)c2ccccc2C1=O [LAPACHOL]
- Activity (THP-1): inactive
- Activity (MONO-MAC-6 [1]): inactive
- Activity (HL-60 [2]): inactive
- Activity (SW982 [3]): inactive
- Activity (Jurkat [4]): inactive
- Activity (U-937 [5]): inactive
- Activity (MCF7 [6]): inactive
- Activity (LS174T): inactive
- Activity (A549): inactive
- Activity (PBMC [7]): Non-Toxic
- Activity [8]: inactive
- inhibition [9]: inactive
- IC50 [10]: 33.2 µM
- IC50 [11]: 42.7 µM

Structure (SMILES): CC(SC1=CC(=O)c2ccccc2C1=O)C(=O)O (stereo not given)
- IC50 (Neutrophil elastase): 36.1 µM
- IC50 (MONO-MAC-6 [12]): 43.6 µM
- IC50 (HL-60 [13]): 20.5 µM
- IC50 (SW982 [14]): 21.1 µM
- IC50 (U-937 [15]): 34.6 µM
- IC50 (MCF7 [16]): 27.9 µM
- IC50 (PBMC [17]): 23.8 µM
- IC50 [10]: 5.4 µM
- IC50 [11]: 5.2 µM
- IC50 (Jurkat [18]): 17.9 µM
- Kd [19]: 2.1 µM
